# Measured values from patent US20250034139A1, “AMINE COMPOUNDS HAVING ANTI-INFLAMMATORY, ANTIFUNGAL, ANTIPARASITIC, AND ANTICANCER ACTIVITY” (PHARMA CINQ, LLC, priority 2013, published 2025).
# System: THP-1 cells
# Assay: Example D: LPS-triggered THP-1 cell death assay, acute/5-hour and chronic/48-hour
# Assay type: cell-based, Human
# Conditions: 10 ng/ml LPS, 0.1 μM test compound, 48 hours
# Description: Compounds of the invention were tested at 0.1 μM versus AC in the LPS-triggered THP-1 cell death assay. Both acute/5-hour and chronic/48-hour phases of cell death were assessed. Compounds were screened in batches with DMSO as the negative control and AC as the high activity control.
row,SMILES,"Viable cell percent change, Chronic/48-hour, Mean"
1,"CCCCCCOCCCCCCCCCCNc1ccnc2ccccc12 [Compound AL, N-[10-(Hexyloxy)decyl]quinolin-4-amine]",19.14%
2,"CCCCCCOCCCCCCCCNc1ccnc2c(Cl)cccc12 [Compound AX, 8-Chloro-N-[8-(hexyloxy)octyl]quinolin-4-amine]",18.20%

# Same assay, conditions: 0.1 μM, 5-hour and 48-hour time points
row,SMILES,"activity relative to AC in the LPS-triggered THP-1 cell death assay, in words"
1,"CCCCCCOCCCCCCCCCCNc1ccnc2ccccc12 [Compound AL, N-[10-(Hexyloxy)decyl]quinolin-4-amine]",equivalent activity to AC at both the 5-hour and 48-hour time points

# System: Trichophyton rubrum
# Assay: Example J: Trichophyton rubrum growth inhibition, scoring by eye
# Assay type: cell-based
# Conditions: Trichophyton rubrum, 144 h; 6 days at 30° C., tested 6 to 40 μM; read-out: MIC, μM (maximum inhibition concentration, scoring by eye)
# Outline: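 Filtered T. rubrum suspension from PDA plates (grown 4 days, 30 °C) treated with diluted compounds in triplicate, incubated 6 days at 30 °C. Plates imaged; MIC scored by eye.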
row,SMILES,MIC
1,"CCCCCCOCCCCCCCCNc1ccnc2cc(Cl)ccc12 [AW, 7-Chloro-N-[8-(hexyloxy)octyl]quinolin-4-amine]",6 µM
2,"CCCCCCOCCCCCCCCCCNc1ccnc2ccccc12 [Compound AL, N-[10-(Hexyloxy)decyl]quinolin-4-amine]",12 µM
3,"CCCCCCOCCCCCCCCNc1ccnc2c(Cl)cccc12 [Compound AX, 8-Chloro-N-[8-(hexyloxy)octyl]quinolin-4-amine]",6 µM

# System: Candida glabrata strains
# Assay: Example N: MIC and MFC (CLSI) against Candida glabrata
# Assay type: cell-based
# Conditions: Nakaseomyces glabratus, 24 h
# Description: (§1) The objective of this study was to determine the antifungal activity of eight experimental compounds against a representative panel of fungal isolates, including Candida albicans, C. glabrata, Cryptococcus neoformans, Trichophyton rubrum, Aspergillus fumigatus, and Rhizopus spp. Antifungal activity was measured by minimum inhibitory concentration (MIC) and minimum fungicidal concentration (MFC).
# (§2) Three recent clinical strains of each species, taken from the culture collection at the Center for Medical Mycology, Case Western University, were tested.
# (§3) Compounds in powder form were dissolved in DMSO. Serial dilutions of each compound were then prepared in RPMI-1640 in a range of […].
# (§4) MIC testing was performed according to the CLSI M27-A3 and M38-A2 standards for the susceptibility testing of yeasts and filamentous fungi, respectively (1, 2). Test isolates were subcultured from frozen slants onto potato dextrose agar plates (Trichophyton rubrum was subcultured onto oatmeal plates for conidia production) and checked for purity. Inocula were then prepared in RPMI-1640 (YNB for Cryptococcus) to a concentration of 0.5-2.5×10^3 colony-forming units (CFU)/ml or 0.4-5×10^4 conidia/ml for yeast and filamentous fungi, respectively.
# (§5) MFC determinations were performed according to the modifications previously described by Canton et al. and Ghannoum and Isham. (3, 4) Specifically, the total contents of each clear well from the MIC assay were subcultured onto potato dextrose agar. To avoid antifungal carryover, the aliquots were allowed to soak into the agar and then were streaked for isolation once dry, thus removing the cells from the drug source.
row,SMILES,MIC50
1,"CCCCCCOCCCCCCCCNc1ccnc2cc(Cl)ccc12 [AW, 7-Chloro-N-[8-(hexyloxy)octyl]quinolin-4-amine]",4 µg/mL
2,"CCCCCCOCCCCCCCCCCNc1ccnc2ccccc12 [Compound AL, N-[10-(Hexyloxy)decyl]quinolin-4-amine]",2 µg/mL
3,"CCCCCCOCCCCCCCCNc1ccnc2c(Cl)cccc12 [Compound AX, 8-Chloro-N-[8-(hexyloxy)octyl]quinolin-4-amine]",2 µg/mL

# Same assay, conditions: Nakaseomyces glabratus, 24 h, read-out: MIC 100%
row,SMILES,MIC
1,"CCCCCCOCCCCCCCCNc1ccnc2cc(Cl)ccc12 [AW, 7-Chloro-N-[8-(hexyloxy)octyl]quinolin-4-amine]",8 µg/mL
2,"CCCCCCOCCCCCCCCCCNc1ccnc2ccccc12 [Compound AL, N-[10-(Hexyloxy)decyl]quinolin-4-amine]",2 µg/mL
3,"CCCCCCOCCCCCCCCNc1ccnc2c(Cl)cccc12 [Compound AX, 8-Chloro-N-[8-(hexyloxy)octyl]quinolin-4-amine]",8 µg/mL

# Same assay, conditions: Nakaseomyces glabratus, 48 h
row,SMILES,MIC50
1,"CCCCCCOCCCCCCCCNc1ccnc2cc(Cl)ccc12 [AW, 7-Chloro-N-[8-(hexyloxy)octyl]quinolin-4-amine]",8 µg/mL
2,"CCCCCCOCCCCCCCCCCNc1ccnc2ccccc12 [Compound AL, N-[10-(Hexyloxy)decyl]quinolin-4-amine]",2 to 4 µg/mL
3,"CCCCCCOCCCCCCCCNc1ccnc2c(Cl)cccc12 [Compound AX, 8-Chloro-N-[8-(hexyloxy)octyl]quinolin-4-amine]",8 µg/mL

# Same assay, conditions: Nakaseomyces glabratus, 48 h, read-out: MIC 100%
row,SMILES,MIC
1,"CCCCCCOCCCCCCCCNc1ccnc2cc(Cl)ccc12 [AW, 7-Chloro-N-[8-(hexyloxy)octyl]quinolin-4-amine]",8 to 16 µg/mL
2,"CCCCCCOCCCCCCCCCCNc1ccnc2ccccc12 [Compound AL, N-[10-(Hexyloxy)decyl]quinolin-4-amine]",4 µg/mL
3,"CCCCCCOCCCCCCCCNc1ccnc2c(Cl)cccc12 [Compound AX, 8-Chloro-N-[8-(hexyloxy)octyl]quinolin-4-amine]",8 µg/mL

# Same assay, conditions: Nakaseomyces glabratus; range over Candida glabrata strains, in 48 hr
row,SMILES,MFC
1,"CCCCCCOCCCCCCCCNc1ccnc2cc(Cl)ccc12 [AW, 7-Chloro-N-[8-(hexyloxy)octyl]quinolin-4-amine]",16 to 32 µg/mL
2,"CCCCCCOCCCCCCCCCCNc1ccnc2ccccc12 [Compound AL, N-[10-(Hexyloxy)decyl]quinolin-4-amine]",4 µg/mL
3,"CCCCCCOCCCCCCCCNc1ccnc2c(Cl)cccc12 [Compound AX, 8-Chloro-N-[8-(hexyloxy)octyl]quinolin-4-amine]",8 to 64 µg/mL

# System: Cryptococcus neoformans strains
# Assay: Example N: MIC and MFC (CLSI) against Cryptococcus neoformans
# Assay type: cell-based
# Set-up: MIC at 50% inhibition: unit not given here
# Conditions: not given
# Description: as §1, §2, §3, §4, §5
row,SMILES,MIC at 50% inhibition
1,"CCCCCCOCCCCCCCCNc1ccnc2c(Cl)cccc12 [Compound AX, 8-Chloro-N-[8-(hexyloxy)octyl]quinolin-4-amine]",0.12-2

# Same assay, conditions: 3 isolates
row,SMILES,"cidal activity (MFC within 4 dilutions of the MIC), in words"
1,"CCCCCCOCCCCCCCCNc1ccnc2c(Cl)cccc12 [Compound AX, 8-Chloro-N-[8-(hexyloxy)octyl]quinolin-4-amine]",cidal against all 3 neoformans isolates

# Same assay, conditions: Cryptococcus neoformans, read-out: MIC 100%, Range; incubated for 72 hrs, three clinical strains
row,SMILES,MIC
1,"CCCCCCOCCCCCCCCNc1ccnc2cc(Cl)ccc12 [AW, 7-Chloro-N-[8-(hexyloxy)octyl]quinolin-4-amine]",2 µg/mL
2,"CCCCCCOCCCCCCCCCCNc1ccnc2ccccc12 [Compound AL, N-[10-(Hexyloxy)decyl]quinolin-4-amine]",2 µg/mL
3,"CCCCCCOCCCCCCCCNc1ccnc2c(Cl)cccc12 [Compound AX, 8-Chloro-N-[8-(hexyloxy)octyl]quinolin-4-amine]",0.5 to 4 µg/mL

# Same assay, conditions: Cryptococcus neoformans; three clinical strains
row,SMILES,MFC
1,"CCCCCCOCCCCCCCCNc1ccnc2cc(Cl)ccc12 [AW, 7-Chloro-N-[8-(hexyloxy)octyl]quinolin-4-amine]",2 to 8 µg/mL
2,"CCCCCCOCCCCCCCCCCNc1ccnc2ccccc12 [Compound AL, N-[10-(Hexyloxy)decyl]quinolin-4-amine]",2 to 4 µg/mL
3,"CCCCCCOCCCCCCCCNc1ccnc2c(Cl)cccc12 [Compound AX, 8-Chloro-N-[8-(hexyloxy)octyl]quinolin-4-amine]",4 to 8 µg/mL

# System: Aspergillus fumigatus strains
# Assay: Example N: MIC and MFC (CLSI) against Aspergillus fumigatus
# Assay type: cell-based
# Conditions: 3 strains
# Description: as §1, §2, §3, §4, §5
row,SMILES,"cidal activity (MFC within 4 dilutions of the MIC), in words"
1,"CCCCCCOCCCCCCCCCCNc1ccnc2ccccc12 [Compound AL, N-[10-(Hexyloxy)decyl]quinolin-4-amine]",cidal against one of the A. fumigatus strains (MRL 28397)

# Same assay, conditions: Aspergillus fumigatus, 24 h
row,SMILES,MIC50
1,"CCCCCCOCCCCCCCCNc1ccnc2cc(Cl)ccc12 [AW, 7-Chloro-N-[8-(hexyloxy)octyl]quinolin-4-amine]",2 to 4 µg/mL
2,"CCCCCCOCCCCCCCCCCNc1ccnc2ccccc12 [Compound AL, N-[10-(Hexyloxy)decyl]quinolin-4-amine]",2 µg/mL
3,"CCCCCCOCCCCCCCCNc1ccnc2c(Cl)cccc12 [Compound AX, 8-Chloro-N-[8-(hexyloxy)octyl]quinolin-4-amine]",0.12 to 0.25 µg/mL

# Same assay, conditions: Aspergillus fumigatus, 24 h, read-out: MIC 100%
row,SMILES,MIC
1,"CCCCCCOCCCCCCCCNc1ccnc2cc(Cl)ccc12 [AW, 7-Chloro-N-[8-(hexyloxy)octyl]quinolin-4-amine]",4 to 8 µg/mL
2,"CCCCCCOCCCCCCCCCCNc1ccnc2ccccc12 [Compound AL, N-[10-(Hexyloxy)decyl]quinolin-4-amine]",2 µg/mL
3,"CCCCCCOCCCCCCCCNc1ccnc2c(Cl)cccc12 [Compound AX, 8-Chloro-N-[8-(hexyloxy)octyl]quinolin-4-amine]",0.5 to 1 µg/mL

# Same assay, conditions: Aspergillus fumigatus, 48 h
row,SMILES,MIC50
1,"CCCCCCOCCCCCCCCNc1ccnc2cc(Cl)ccc12 [AW, 7-Chloro-N-[8-(hexyloxy)octyl]quinolin-4-amine]",8 µg/mL
2,"CCCCCCOCCCCCCCCCCNc1ccnc2ccccc12 [Compound AL, N-[10-(Hexyloxy)decyl]quinolin-4-amine]",2 to 4 µg/mL
3,"CCCCCCOCCCCCCCCNc1ccnc2c(Cl)cccc12 [Compound AX, 8-Chloro-N-[8-(hexyloxy)octyl]quinolin-4-amine]",1 to 4 µg/mL

# Same assay, conditions: Aspergillus fumigatus, 48 h, read-out: MIC 100%
row,SMILES,MIC
1,"CCCCCCOCCCCCCCCNc1ccnc2cc(Cl)ccc12 [AW, 7-Chloro-N-[8-(hexyloxy)octyl]quinolin-4-amine]",16 µg/mL
2,"CCCCCCOCCCCCCCCCCNc1ccnc2ccccc12 [Compound AL, N-[10-(Hexyloxy)decyl]quinolin-4-amine]",4 µg/mL
3,"CCCCCCOCCCCCCCCNc1ccnc2c(Cl)cccc12 [Compound AX, 8-Chloro-N-[8-(hexyloxy)octyl]quinolin-4-amine]",4 to 8 µg/mL

# Same assay, conditions: range over Aspergillus fumigatus strains, in 48 hr
row,SMILES,MFC
1,"CCCCCCOCCCCCCCCCCNc1ccnc2ccccc12 [Compound AL, N-[10-(Hexyloxy)decyl]quinolin-4-amine]",4 to 32 µg/mL
2,"CCCCCCOCCCCCCCCNc1ccnc2c(Cl)cccc12 [Compound AX, 8-Chloro-N-[8-(hexyloxy)octyl]quinolin-4-amine]",> 64 µg/mL

# System: 4T1 murine breast cancer cells
# Assay: Example S: in vitro anticancer screen, 4T1 cells, Wst1
# Assay type: cell-based, mouse
# Conditions: Mus musculus, 4T1, 18 h, 1 μM, 18 hr, Wst1; read-out: 4T1 1 μM, percent of cancer cell survival relative to vehicle treated cells
# Outline: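 Read-out is Wst1 absorbance (450 nm, reference 630 nm) after roughly 2 hr dye incubation, giving percent cell survival versus vehicle. Before that, compounds at 1 μM or 5 μM were applied for 18 hr to 4T1 cells plated at 1×10^4 per well.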
row,SMILES,viability at 1 µM
1,"CCCCCCOCCCCCCCCNc1ccnc2cc(Cl)ccc12 [AW, 7-Chloro-N-[8-(hexyloxy)octyl]quinolin-4-amine]",44.2%
2,"CCCCCCOCCCCCCCCCCNc1ccnc2ccccc12 [Compound AL, N-[10-(Hexyloxy)decyl]quinolin-4-amine]",16.6%
3,"CCCCCCOCCCCCCCCNc1ccnc2c(Cl)cccc12 [Compound AX, 8-Chloro-N-[8-(hexyloxy)octyl]quinolin-4-amine]",24.3%

# Same assay, conditions: Mus musculus, 4T1, 18 h, 5 μM, 18 hr, Wst1; read-out: 4T1 5 μM, percent of cancer cell survival relative to vehicle treated cells
row,SMILES,viability at 5 µM
1,"CCCCCCOCCCCCCCCNc1ccnc2cc(Cl)ccc12 [AW, 7-Chloro-N-[8-(hexyloxy)octyl]quinolin-4-amine]",18%
2,"CCCCCCOCCCCCCCCCCNc1ccnc2ccccc12 [Compound AL, N-[10-(Hexyloxy)decyl]quinolin-4-amine]",18.3%
3,"CCCCCCOCCCCCCCCNc1ccnc2c(Cl)cccc12 [Compound AX, 8-Chloro-N-[8-(hexyloxy)octyl]quinolin-4-amine]",18%

# System: PC3 human prostate cancer cells
# Assay: Example S: in vitro anticancer screen, PC-3 cells, Wst1
# Assay type: cell-based
# Conditions: Homo sapiens, PC-3; 0.4 μM, approximately 20 hours, Wst1; read-out: PC-3, percent of cancer cell survival relative to vehicle treated cells
# Outline: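 Values give percent survival relative to vehicle, read by Wst1 absorbance (450/630 nm) after 2 h dye incubation, in triplicate. Cells were seeded at 2×10^4/well and treated about 20 h with compound at 0.4, 0.5 or 2.5 μM, depending on compound.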
row,SMILES,viability at 0.4 µM
1,"CCCCCCOCCCCCCCCNc1ccnc2cc(Cl)ccc12 [AW, 7-Chloro-N-[8-(hexyloxy)octyl]quinolin-4-amine]",38.2%
2,"CCCCCCOCCCCCCCCCCNc1ccnc2ccccc12 [Compound AL, N-[10-(Hexyloxy)decyl]quinolin-4-amine]",61.6%
3,"CCCCCCOCCCCCCCCNc1ccnc2c(Cl)cccc12 [Compound AX, 8-Chloro-N-[8-(hexyloxy)octyl]quinolin-4-amine]",31.2%
